Data as given in the NIST ThermoML archive (doi:10.1021/je060253t).
Where “and” joins values, the source holds several entries; their conditions need not be identical. Equal values may be shown once. ± gives the expanded uncertainty stated by the source.

details: 313.15 K; Liquid; Closed cell (Static) method

Row | Structure (SMILES) | vapor or sublimation pressure
1 | CCCO [propan-1-ol] | 6.999 ± 0.038 kPa and 7.007 ± 0.038 kPa and 7 ± 0.038 kPa
2 | COC(C)(C)C [2-methoxy-2-methylpropane] | 59.92 ± 0.21 kPa and 59.91 ± 0.21 kPa
3 | CCCCCC [hexane] | 37.3 ± 0.14 kPa and 37.25 ± 0.14 kPa
